Patent US11298409B2, “Mutant huntingtin-mediated protein dysfunction” (UNIVERSITY OF PITTSBURGH—OF THE COMMONWEALTH SYSTEM OF …, priority 2014, dated 2022)
Read-outs that look alike come from different tables or passages of the source. No end group written: not given here.

Tests used:
[1] = system: pOTC import into mitochondria isolated from striatal cells; test: pOTC import assay with mitochondria from striatal cells plus uncoupler; format: biochemical; conditions: added to mitochondria before starting the import reaction
Description: The assay was performed as previously described (52,53).

[2] = system: WT primary cortical neurons; conditions: 10 μM
Description: Primary cortical neurons were prepared from R6/2 and WT littermate embryos at E15.5. Neurons prepared from each embryo were plated into separate dishes. […] Primary cortical neurons were incubated with the indicated concentrations of H2O2 for 1 day, and neuronal death was analyzed by lactate dehydrogenase (LDH) assay (11c). Data (11b, 11c) are presented as mean+s.e.m.

[3] = system: mitochondrial protein import in primary cortical neurons; conditions: 10 μM, 2 h
Description: Neurons obtained from each embryo were cultured separately on poly-1-lysine-coated plates and subjected to in vitro pOTC import assay on DIV 7-8.
Pre-ornithine transcarbamylase (pOTC) cDNA in pGEM-3Zf(+)-pOTC plasmid, which was kindly provided by M. Yano (Kumamoto University, Kumamoto, Japan), was transcribed and translated in vitro using the TNT-coupled reticulocyte lysate system (Promega) in the presence of 1-[^35S]methionine (PerkinElmer). Following translation, [35 S]methionine-labeled pOTC was incubated with isolated mitochondria at 25° C. for the indicated times, and mitochondria containing imported OTC were collected by centrifugation (9,000 g, 10 min) and subjected to SDS-PAGE. The radioactive polypeptides on the gel were visualized by fluorography with Amplify (GE Healthcare) followed by exposure to X-ray film. Cleaved mature OTC (mOTC), which represents the completion of import into the mitochondrial matrix and migrates faster than pOTC on SDS-PAGE, was quantified by ImageJ (NIH). The data are presented as the percentage of mOTC compared to input (total [^35S]pOTC amount added to each reaction) and scaled to imported mOTC in control mitochondria after the maximum reaction time (set equal to 1) unless otherwise specified. […]

[4] = system: primary cortical and striatal neurons; test: cell death assay by nuclear morphology in Tom40 RNAi-transfected primary neurons; format: cell-based, mouse; conditions: 20 μM
Description: Mouse primary cortical and striatal neurons from embryonic day (E) 15.5 Swiss Webster mouse fetuses were cultured in plating medium (minimal essential medium (MEM), 10% FBS, 0.45% glucose, 1 mM sodium pyruvate, 2 mM glutamine and penicillin/streptomycin) for 3 h and then maintained in serum-free Neurobasal medium containing B27 supplement (Life Technologies), 0.5 mM glutamine and 25 μM glutamate for the first 3 d in a humidified incubator (37° C. in 5% CO2). Half of the medium was replaced with Neurobasal medium with B27 and 0.5 mM glutamine every 3 d. […] Viral copy number was adjusted for transduction of neurons on the basis of titer measured using the Lenti-X qRT-PCR titration kit (Clontech). […]
Primary neurons infected with Tim23 shRNA or control luciferase shRNA lentivirus at DIV 5 were fixed 7 d after infection. Nuclei were stained with Hoechst 33342, and neurons were assessed in a blinded fashion for cell death by scoring condensed or fragmented nuclei. Primary neurons plated in a 24-well plate were transfected with Tom40 shRNA or control pBSU6 plasmid along with β-gal expression plasmid at DIV 5, fixed 3 d after transfection and subjected to indirect immunofluorescence with anti-β-gal antibody and nuclear DAPI staining. β-gal-positive neurons were assessed for cell death as described above. […]

Tim23 = target: T1, Tim23 (Mus musculus, UniProt Q9WTQ8); test: GST pull down assay with purified Tim proteins; format: binding
T1 construct: GST (N, cleaved yes); made in house; host or cells: E. coli BL21star (DE3)
T1 sequence (Q9WTQ8 1-209): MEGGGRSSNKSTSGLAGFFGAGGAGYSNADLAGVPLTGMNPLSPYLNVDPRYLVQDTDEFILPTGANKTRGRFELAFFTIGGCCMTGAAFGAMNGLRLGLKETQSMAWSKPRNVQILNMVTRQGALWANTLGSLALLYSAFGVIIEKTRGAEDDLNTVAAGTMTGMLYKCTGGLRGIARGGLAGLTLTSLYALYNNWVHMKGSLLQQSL
Description: Mouse Timm23, Timm50, Timm17A, and Timm17B cDNA were subcloned into the GST-Httex1 vector and transformed into BL21star (DE3) cells (Life Technologies). GST-Tim23, GST-Tim50, GST-Tim17A, and GST-Tim17B fusion proteins were purified from the cells by using glutathione 4B Sepharose beads (GE Healthcare) to bind the fusion proteins. To purify Tim proteins from GST, the GST fusion protein-bead complexes were digested with thrombin protease (GE Healthcare) at 25° C. overnight, and eluted with PBS. The eluted proteins were concentrated in PBS using AmiconUltra-10K centrifugal filters (Millipore).
GST-Htt exon 1 proteins and GST removed Tim proteins were incubated with glutathione 4B Sepharose beads (GE Healthcare) at 4° C. overnight. The glutathione beads were then washed extensively with ice-cold PBS, and bound proteins were subjected to SDS-PAGE followed by immunoblotting analysis.

[5] = system: TIM23 complex (Tim17a, Tim23 and Tim50); test: GST pull-down with mitochondria isolated from ST14A striatal cells and mouse brain; format: binding, rat
Description: Extracts were spun at 14,000 r.p.m. at 4° C., and clarified supernatants were incubated with glutathione 4B Sepharose beads (GE Healthcare) at 4° C. overnight. The glutathione beads were then washed extensively with ice-cold TNE buffer, and bound proteins were subjected to SDS-PAGE followed by immunoblotting analysis. For the samples subjected to mass spectrometry, glutathione bead-bound proteins from equal amounts (600 μg) of mitochondria were further washed with high stringency RIPA buffer following TNE buffer wash to decrease nonspecific interaction. Proteins were then eluted from the glutathione beads in SDS sample buffer, separated by SDS-PAGE and stained with Coomassie. Proteins in the gel were digested with trypsin and analyzed by mass spectrometry (LC-MS/MS) at the Taplin Biological Mass Spectrometry Facility (Harvard Medical School, Boston, Mass.).
We therefore performed GST pull-down assays using purified GST-Httex1-97Q, GST-Httex1-97Q-ΔN17, which lacks the N17 sequence, and GST-N17 with mitochondria isolated from ST14A striatal cells and mouse brain.

O=[N+]([O-])c1ccc(O)c([N+](=O)[O-])c1 [2,4-dinitrophenol]
effect on pOTC import [1]: blocks import

OO [hydrogen peroxide]
effect on survival [2]: does not affect
effect on mitochondrial protein import vs vehicle ([3]; R6/2 neurons): significantly decreased import
effect on mitochondrial protein import vs vehicle ([3]; WT neurons): little to no effect

CC(C)[C@H](NC(=O)c1ccc2ccccc2n1)C(=O)N[C@@H](CC(=O)O)C(=O)COc1c(F)cccc1F [qVD-OPh]
effect on Tom40 RNAi-induced neuronal death [4]: partially but significantly inhibited

GST-N17: GST tagged N terminal 17 amino acids of Huntingtin protein (MATLEKLMKAFESLKSF; also: GST tagged, side not given here)
binding to Tim23 in pull down (Tim23): did not bind
interaction with Tim17a, Tim23 and Tim50 in pull-down [5]: little, if any, interaction
